These results are taken from article PMC12240781 (Frontiers in Pharmacology, 2025).

For series [1] the following is noted: pH 5.8, Henderson-Hasselbalch equation.
For series [2] the following is noted: cited from earlier work.
The next series in a line: in vitro. As to conditions: for Papp at 6 h, 25 μg/mL: PAMPA; for Increase in Papp: with probiotic bacteria vs control without probiotics. On the procedure: Hydrophobic MultiScreen PVDF microfiltration plates with 96 wells and a pore diameter of 0.45 μm (Millipore, USA) were used as acceptor plates and as supports for the artificial membrane. Each well of the acceptor plate was impregnated with 6 μL of a 2% lecithin solution in n-dodecane, and after solvent evaporation, an artificial membrane was formed. To the corresponding wells of the acceptor plate, 200 μL of PBS buffer (pH 7.4) was added, while 300 μL of the tested compound solution in respective buffer was added to the wells of the donor plate (MultiScreen Transport Receiver Plate, Millipore, USA). All analyses were conducted in triplicate at three different pH values in the donor compartment, while the pH value in the acceptor compartment was always 7.4. The donor plate was aligned with the acceptor plate to initiate incubation. Incubation of samples was performed at 37°C in a sealed PAMPA system to minimize oxygen exposure. […] Before HPLC injection, protein precipitation was achieved by diluting a 50 μL sample from the donor compartment fivefold with acetonitrile, followed by centrifugation at 15,000 rpm for 10 min at +4°C, as described by Đanić et al. ([Ðanić et al., 2019]). Subsequently, 100 μL of the supernatant was directly injected into the HPLC system.
After determining the concentrations of the tested compounds in the donor and acceptor wells, apparent permeability coefficients (Papp) were calculated and expressed in units of cm/s based on the equation: Papp=C×−ln 1−Ca/Ceq where C is a correction factor calculated as: C=Vd×Va/Vd+Va×S×t
The equilibrium drug concentration (Ceq) was determined using mass balance: Ceq=Cd×Vd+Ca×Va/Vd+Va
In these equations, Ca represents the drug concentration in the acceptor compartment after 6 h, Ceq is the equilibrium drug concentration determined based on mass balance, Va and Vd denote the volumes of the acceptor and donor compartments, respectively, measured in milliliters, t represents the time period over which permeability was assessed, expressed in seconds, and S refers to the membrane surface area in square centimeters. The surface area of the artificial membrane was calculated to be 0.24 cm^2, as the acceptor filter membrane plates have a surface area of 0.32 cm^2 and a porosity of 75%, according to the manufacturer’s data.
Sample analysis was performed using high-performance liquid chromatography (HPLC; Dionex) with a diode array detector (DAD). […] Briefly, the chromatographic analysis was performed using a reverse-phase Zorbax Eclipse Plus C18 column (150 mm × 2.1 mm, 5 μm; Agilent Technologies, USA), coupled with a Zorbax Extend C18 guard column (12.5 mm × 2.1 mm, 5 μm; Agilent Technologies, USA). During the analysis, the column temperature was maintained at a constant 25°C, and the injection volume was 20 μL. Elution was performed using an isocratic program, with the mobile phase consisting of 50% AcN and 50% phosphate buffer adjusted to pH 3.3 with orthophosphoric acid, with the addition of 0.5 mL triethylamine as a column modifier. The total analysis time was 5 min, with a constant flow rate of the mobile phase at 0.3 mL/min. […] The eluate was monitored using a UV/DAD detector at a wavelength of 276 nm.

By logP is commonly meant the decadic logarithm of the partition coefficient of the neutral form, usually between octanol and water. A word on the Papp: it is a coefficient for how fast a substance crosses the barrier. Take `Cn1cnc([N+](=O)[O-])c1Sc1ncnc2nc[nH]c12` [azathioprine]: the Ionization percentage in series [1] turned out to be 0.84%. The “Biopharmaceutics Classification System (BCS) class” value in series [2] (low solubility and low permeability, ref Bocci et al., 2022) was “Class IV”. Besides, in series [2] (ref Hansch et al., 1996), the logP was 0.1. Further, the Papp at 6 h, 25 μg/mL is 0.193 ± 0.014 ×10⁻⁶ cm/s in the series “in vitro” (Permeability [Papp x10^−7] [cm/s]); less than 1 ×10⁻⁶ cm/s in the series “in vitro” (Permeability class across the PAMPA membrane); 0.134 ± 0.005 ×10⁻⁶ cm/s in the series “in vitro” (pH 7.4, Permeability [Papp x10^−7] [cm/s]). The “Rise of azathioprine levels in the acceptor compartment” value in the series “in vitro” (incubated with probiotics, 6 h) was “less than 1%”. The “Increase in Papp” value came out at 2.2 fold in “in vitro” (pH 5.8), 1.9 fold in “in vitro” (pH 6.5) and 2.5 fold in “in vitro” (pH 7.4). The “Increase of azathioprine concentration in the acceptor compartment” value in “in vitro” (with probiotics vs control without probiotics (AP vs. A), pH 5.8, 6 h) came to 18%; in “in vitro” (with probiotics vs control without probiotics (AP vs. A), pH 7.4, 6 h), 57%; in “in vitro” (with probiotics vs control without probiotics, pH 6.5, 6 h), 26%.
